Entries after “also recorded” stand apart in the source; their conditions may differ.
Legend:
RhlR [1] = target: T1, RhlR (Pseudomonas aeruginosa, UniProt P54292); experiment: E. coli RhlR reporter antagonism assay vs 10 μM BHL (JLD271/pJN105R2/pSC11-rhlI*); format: cell-based, P. aeruginosa; settings: for inhibition at 10 µM: read-out: % inhibition (10 μM), compound at 10 μM in the presence of 10 μM BHL; for inhibition at 10 µM / inhibition at 1000 µM: negative = agonism stronger than 10 μM BHL alone; for inhibition at 1000 µM: read-out: % inhibition (1 mM), compound at 1 mM in the presence of 10 μM BHL
T1 construct: expressed in transfected cells; host or cells: E. coli JLD271 (ΔsdiA) with pJN105R2 (arabinose-induced) and pSC11-rhlI*
T1 sequence (P54292 whole entry): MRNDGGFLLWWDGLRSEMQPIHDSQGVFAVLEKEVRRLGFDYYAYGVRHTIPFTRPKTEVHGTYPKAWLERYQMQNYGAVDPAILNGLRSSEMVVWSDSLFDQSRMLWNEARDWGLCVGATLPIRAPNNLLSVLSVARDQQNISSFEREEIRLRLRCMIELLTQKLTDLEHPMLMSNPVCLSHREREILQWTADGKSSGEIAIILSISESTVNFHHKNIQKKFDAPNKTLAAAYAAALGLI

RhlR [2] = target: T1, RhlR; experiment: P. aeruginosa RhlR reporter agonism assay (PAO-JP2/prhlI-LVAgfp); format: cell-based; settings: P. aeruginosa reporter compared with E. coli reporter
Description: All media and reagents for bacterial culture were purchased from commercial sources. Bacteria were cultured in Luria-Bertani broth (LB) at 37° C. with shaking at 200 rpm unless otherwise noted. The bacterial reporter strains used for this study were (i) the heterologous E. coli strain JLD271 (ΔsdiA) harboring the RhlR expression plasmid pJN105R2 and the rhlI-lacZ transcriptional fusion reporter pSC11-rhlI*, (ii) the heterologous E. coli strain JLD271 (ΔsdiA) harboring the LasR expression plasmid pJN105L and the […] transcriptional fusion reporter pSC11, and (iii) the P. aeruginosa strain PAO-JP2 (ΔlasrhlI) harboring the rhlI-gfp transcriptional fusion reporter prhlI-LVAgfp. Reporter strains JLD271/pJN105R2/pSC11-rhlI* and JLD271/pJN105L/pSC11 were grown in LB containing 100 μg/mL ampicillin and 10 μg/mL gentamicin. Freezer stocks of bacterial strains were maintained at −80° C. in 1:1 LB:50% glycerol.
To evaluate the RhlR-modulatory activities of selected compounds in P. aeruginosa, the ΔlasIrhlI strain PAO-JP2 harboring plasmid prhlI-LVAgfp was used as previously reported.^38 Briefly, a subculture was prepared by diluting an overnight culture 1:100 in fresh LB and was grown to OD600=0.3. […] Subculture was treated with 100 nM OdDHL (to induce native expression of RhlR) by adding the appropriate amount of OdDHL stock solution in DMSO. The subculture was then dispensed ([…] aliquots) into each synthetic compound-containing well of the microtiter plate.
Plates were incubated at 37° C. for 6 h, and GFP production was monitored by using a Synergy 2 plate reader (λex=500 nm, λem=540 nm; BioTek, Winooski, Vt.) and quantified with Gen5 1.05 software (BioTek). The final OD600 for each well was measured to normalize GFP production to cell density. All synthetic compounds were tested in triplicate, and three separate trials were performed with unique cultures. Agonism dose-response analyses were performed by testing compounds over a range of concentrations with the RhlR reporter.
Library compounds J18 and J24, as well as controls BHL and S4, were evaluated for potency in the native genetic background of RhlR by using the P. aeruginosa strain PAO-JP2 (ΔlasIrhlI) harboring the RhlR reporter plasmid prhlI-LVAgfp (Table 3). Because the production of RhlR is dependent on LasR (in LB medium), all assays were performed in the presence of 100 nM OdDHL, enabling immediate transcription of RhlR via LasR activation. […] All compounds also retained similar potencies when screened in the P. aeruginosa background.

SMILES | inhibition at 10 µM (RhlR [1]) [%] | inhibition at 1000 µM (RhlR [1]) [%] | RhlR agonist potency in words (RhlR [2]) | RhlR antagonist activity in words (RhlR [1]; E. coli reporter vs 10 μM BHL) | Maximum Inhibition (%) (RhlR [1]; E. coli reporter, relative to activation of 10 μM BHL alone)
O=C(N[C@H]1CCCC1=O)C1CCC1 [RN12] | -39 | -98 | maintained activity between the two different reporters | – | –
O=C(COc1ccc(I)cc1)N[C@H]1CCSC1=O [RN22] | 28 | – | – | potent antagonist activity; also recorded: activity comparable to previously identified compound E22 | 81
CC(C)CC(=O)N[C@H]1CCCC1=O [RN36] | -35 | -122 | not able to retain potency | – | –
CC(C)CC(=O)N[C@H]1CCSC1=O [RN37] | -59 | -81 | not able to retain potency | – | –

From US11247976B2, “Synthetic ligands that modulate the activity of the RhlR quorum sensing receptor” (Wisconsin Alumni Research Foundation, priority 2016, dated 2022)
